Results: patent US8765786B2, “1-substituted indazole derivative” (Dainippon Sumitomo Pharma Co., Ltd., priority 2012, dated 2014)
pIC50: −log10 of the molar value.

Tests used:
Slc: ddY mice = test: Novel object recognition test in mice (mORT); type: in vivo
Procedure: Slc: ddY mice (25 g to 30 g, male, Japan SLC) can be used in the novel object recognition test wherein the interval between the 1st trial (training) and the 2nd trial (test) correlates with the memory loss for the objects used in the 1st trial, and a significant memory-loss is observed when the 2nd trial is performed 24 hours after the 1st trial. According to the test mechanism, the present compounds were administered prior to the 1st trial, and the enhancement effect on memory in the 2nd trial was evaluated.

human α7 nAChR = molecular target: T1, human α7 nAChR (Homo sapiens, UniProt P36544); test: Evaluation of PAM activity with human α7 nACh receptor stably expressing cells (aequorin luminescence, FDSS7000); type: cell-based; conditions: test compound 10 μmol/L; ACh added at EC20; ratio of RLU (Max-Min) of test wells to control wells; read-out: α7PAM (%) @ 10 μmol/L
T1 construct: expressed in transfected cells; host or cells: GH4C1 cells derived from rat pituitary (ATCC CCL-82.2)
Outline: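 PAM activity defined as RLU (Max-Min) of compound wells over control wells, from 465 nm aequorin luminescence tracked 138 s after ACh challenge. Host: GH4C1 (rat pituitary) stably co-expressing human α7 nAChR and aequorin, pre-loaded 4 h with 4 μmol/L luminescent substrate.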

[1] = molecular target: T2, hERG (human ether-a-go-go) potassium current (Homo sapiens, UniProt Q12809); test: hERG inhibition test (whole-cell patch clamp, QPatch HT, CHO cells); type: cell-based; conditions: room temperature
T2 construct: expressed in transfected cells; host or cells: CHO cells
Procedure: The hERG (human ether-a-go-go) potassium current in CHO cells which stably express hERG gene was recorded by whole-cell patch clamping technique using an automated patch clamp system, QPatch HT (Sophion Bioscience A/S). Inducing the hERG current, the membrane potential was held at −80 mV in voltage clamp mode, and then depolarized to −50 mV for 20 msec and then +20 mV for 5 sec. Then, the membrane potential was repolarized to −50 mV for 5 sec and the tail current amplitude was measured. The stimulation was given at a frequency of every 15 seconds, and the experiment was carried out at room temperature (22±2° C.) The compound was cumulatively administered to each cell in 4 concentrations, wherein the administration was done over 5 minutes in each concentration. The inhibition percentage of the inhibited current was calculated by comparing the current intensities before and after the compound was given in each concentration. According to Hill equation, each 50% inhibitory concentration was calculated (IC50 [μmol/L]). The test solutions used herein were as follows: extracellular solution (mmol/L): 2 CaCl2, 1 MgCl2, 10 HEPES, 4 KCl, 145 NaCl, 10 glucose,
intracellular solution (mmol/L): […], 1.8 MgCl2, 10 HEPES, 31 KOH, 10 EGTA, 120 KCl, 4 ATP

Slc: Wistar rats = test: Y-shaped maze test in rats, scopolamine-induced cognitive impairment; type: in vivo; conditions: 0.6 mg/kg scopolamine HBr s.c.
Procedure: In Y-maze test, 0.6 mg/kg scopolamine HBr (cat#S0929, Sigma Aldrich, Japan) can be subcutaneously administered to Slc: Wistar rats (280 g to 300 g, male, Japan SLC) to cause cognitive impairment and decrease the percentage of alternation behavior. According to the test mechanism, the present compounds were treated prior to the administration of scopolamine, and the improvement effect on cognitive impairment was evaluated.

[2] = Measurement of protein binding ratio (equilibrium dialysis); type: in vitro ADME, human
Rat PK test = type: in vivo; conditions: plasma, rats, intravenous and oral administration
Procedure: The present compound was administered intravenously in saline solution or orally in methylcellulose solution to 7 weeks old rats, and their blood was collected according to the following schedule:
(intravenous administration) 5 minutes, 15 minutes, 30 minutes, 1 hour, 2 hours, 4 hours, 6 hours and 24 hours after the administration
(oral administration) 15 minutes, 30 minutes, 1 hour, 2 hours, 4 hours, 6 hours and 24 hours after the administration
The collected blood was centrifuged at 3000 rpm for 10 minutes in a refrigerated centrifuge set at 4° C. The obtained plasma was measured with a HPLC to give a time curve of plasma level, thereby calculating the pharmacokinetic parameters.

[3] = Measurement of brain penetration; type: in vivo; conditions: LC-MS/MS of plasma and brain homogenates; read-out: concentration ratio of the brain to the plasma
Text: The plasma and brain homogenates were deproteinized with methanol and then centrifuged. The supernatant was filtered, and the obtained sample was quantified with LC-MS/MS to calculate the concentration of the plasma and brain.

T2 sequence (Q12809 whole entry): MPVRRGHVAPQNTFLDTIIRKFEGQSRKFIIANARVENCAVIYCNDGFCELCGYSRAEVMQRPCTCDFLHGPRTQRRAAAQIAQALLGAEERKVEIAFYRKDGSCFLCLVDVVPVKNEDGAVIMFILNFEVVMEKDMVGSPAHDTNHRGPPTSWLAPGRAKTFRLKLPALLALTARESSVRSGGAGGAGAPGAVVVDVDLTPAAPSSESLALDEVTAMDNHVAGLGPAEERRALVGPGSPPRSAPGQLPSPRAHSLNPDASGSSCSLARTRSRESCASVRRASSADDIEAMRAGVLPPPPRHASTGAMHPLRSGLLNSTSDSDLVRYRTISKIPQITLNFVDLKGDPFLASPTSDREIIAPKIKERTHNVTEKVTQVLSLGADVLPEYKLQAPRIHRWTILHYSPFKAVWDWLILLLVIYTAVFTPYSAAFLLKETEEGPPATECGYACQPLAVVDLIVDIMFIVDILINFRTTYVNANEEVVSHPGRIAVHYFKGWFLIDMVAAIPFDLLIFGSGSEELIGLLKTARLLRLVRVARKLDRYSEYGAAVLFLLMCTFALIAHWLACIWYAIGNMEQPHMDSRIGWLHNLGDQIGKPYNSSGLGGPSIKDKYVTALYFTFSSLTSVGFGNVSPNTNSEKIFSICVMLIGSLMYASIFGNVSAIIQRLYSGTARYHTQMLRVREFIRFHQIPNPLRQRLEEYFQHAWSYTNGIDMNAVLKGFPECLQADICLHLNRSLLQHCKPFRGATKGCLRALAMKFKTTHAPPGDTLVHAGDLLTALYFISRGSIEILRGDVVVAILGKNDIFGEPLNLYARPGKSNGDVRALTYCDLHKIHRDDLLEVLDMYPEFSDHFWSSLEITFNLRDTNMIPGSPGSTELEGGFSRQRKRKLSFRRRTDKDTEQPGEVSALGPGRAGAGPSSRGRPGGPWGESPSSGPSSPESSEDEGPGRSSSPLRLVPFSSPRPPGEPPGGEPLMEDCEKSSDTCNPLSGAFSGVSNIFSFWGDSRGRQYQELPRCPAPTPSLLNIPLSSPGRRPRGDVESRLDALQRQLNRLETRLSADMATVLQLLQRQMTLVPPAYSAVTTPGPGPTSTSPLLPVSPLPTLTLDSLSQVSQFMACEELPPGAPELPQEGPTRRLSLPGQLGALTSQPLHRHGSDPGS
T1 sequence (P36544 23-502): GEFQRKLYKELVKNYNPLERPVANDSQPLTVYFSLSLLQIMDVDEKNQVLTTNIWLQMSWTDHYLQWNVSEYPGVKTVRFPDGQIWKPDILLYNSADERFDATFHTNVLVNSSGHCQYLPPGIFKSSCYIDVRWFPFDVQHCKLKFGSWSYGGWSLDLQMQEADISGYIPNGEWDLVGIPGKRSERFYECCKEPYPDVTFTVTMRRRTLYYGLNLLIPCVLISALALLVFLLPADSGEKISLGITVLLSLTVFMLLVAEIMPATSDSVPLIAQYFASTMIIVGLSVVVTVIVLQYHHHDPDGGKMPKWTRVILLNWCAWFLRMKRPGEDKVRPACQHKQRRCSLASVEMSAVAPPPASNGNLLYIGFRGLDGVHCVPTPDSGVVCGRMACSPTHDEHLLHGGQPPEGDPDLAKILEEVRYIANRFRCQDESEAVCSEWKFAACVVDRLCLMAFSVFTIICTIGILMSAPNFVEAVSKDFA

| Structure (SMILES) | dose at which efficacy was shown (Slc: ddY mice) [mg/kg] | activity at 10 µM (human α7 nAChR) [%] | pIC50 [1] | dose from which a tendency to improve cognitive function was shown (Slc: Wistar rats) [mg/kg] | minimum effective dose (Slc: ddY mice; administered prior to 1st trial, 2nd trial 24 hours later) [mg/kg] | efficacy at higher doses (Slc: ddY mice; dose of 0.3 mg/kg, 1.0 mg/kg or 3 mg/kg) | protein binding ratio in the brain ([2]; brain) [%] | protein binding ratio in the plasma ([2]; plasma) [%] | bioavailability (Rat PK test) [%] | Kp [3] | dose from which cognitive function was significantly improved (Slc: Wistar rats) [mg/kg] |
| --- | --- | --- | --- | --- | --- | --- | --- | --- | --- | --- | --- |
| CCc1ccc2c(c1)c(OC(C)C)nn2C1CCN(C(=O)NC2CCOCC2)CC1 [Example 63, 4-(5-ethyl-3-isopropoxy-1H-indazol-1-yl)-N-(tetrahydro-2H-pyran-4-yl)piperidine-1-carboxamide] | 3 | 358 | < 5.00 | 0.3 |  |  |  |  |  |  |  |
| CO[C@H]1CC[C@H](NC(=O)N2CCC(n3ncc4cc(C)ccc43)CC2)CC1 [Example 1, N-(trans-4-methoxycyclohexyl)-4-(5-methyl-1H-indazol-1-yl)piperidine-1-carboxamide] |  |  | 4.07 |  | 0.1 | efficacy did not decrease | 91.9 | 84.7 | 41 | 1.27 | 0.3 |
